According to patent US20250368687A1, “SHORT SYNTHETIC PEPTIDES AND USES THEREOF IN THE TREATMENT OF ENTEROVIRUS INFECTION” (CITY UNIVERSITY OF HONG KONG, priority 2024, published 2025):

Key:
[1] = test system: EV-A71; experiment: EV-A71-induced cytopathic effect (CPE) on RD cells; type: cell-based; conditions: EV-A71 MOI 1 for 12 hours
Experimental: FIGS. 10A-10K. Peptide S78 inhibited EV-A71 replication and propagation. (FIG. 10A) RD cells were pre-treated with peptides S78 or for 2 hours and infected with EV-A71 at the MOI of 10 for 6 hours. Cell lysates were collected for western blot assay. Hsp27 phosphorylation on Ser 15, 78, 82 were detected by specific antibodies. β-Actin were detected as internal control. (FIG. 10B) Densitometric analysis of FIG. 9A. (FIG. 10C) HEK 293T cells were pre-treated with peptides S78 or S78A at the concentration of 25 μM for 2 hours and then co-transfected with Hsp27-WT plasmid (800 ng), pIRES reporter plasmid (200 ng) and 2A^pro-expressing plasmid or 2AC110A-expressing plasmid (200 ng) for 24 h, then the luciferase activity was measured. (FIG. 10D-10E) RD cells were treated with peptides S78 or S78A and then infected with EV-A71. EV-A71 VP1 were detected. (FIG. 10F) RD cells were treated with peptides and then infected with EV-A71 at the MOI of 1 for 12 hours. The EV-A71-induced CPE was captured. (FIG. 10G-10H) Intracellular viral RNA was extracted and quantified by qPCR. (FIG. 10I) Densitometric analysis FIG. 9D-E. (FIG. 10J) RD cells were treated with peptides S78 or and then infected with EV-A71 at the MOI of 1 for 12 hours. Extracellular viral RNA was extracted and quantified by qPCR. (FIG. 10K) Viral titration was calculated by TCID50. […] Data are expressed as mean ±SD. […]

[2] = CCK-8 assay; type: cell-based; conditions: human; RD cells, data not shown
Experimental: RD cells were seeded in 96-well cell plates (1×10^4/well) and placed in the 5% CO2 incubator for 1 day. Then the cells were treated with peptides for 2 days. 90 μl medium and 10 μl of CCK-8 (BioSharp, BS350B) was added to each well of the 96-well plate, which were incubated at 37° C. for 1 h. A microplate reader (BioTek, Synergy H1) was used to measure the OD value of each well at 450 nm.

[3] = test system: EV-A71; experiment: Virus titration (TCID50); type: cell-based; conditions: TCID50, RD cells (FIG. 10K)
Experimental: FIGS. 10A-10K. Peptide S78 inhibited EV-A71 replication and propagation. (FIG. 10A) RD cells were pre-treated with peptides S78 or for 2 hours and infected with EV-A71 at the MOI of 10 for 6 hours. Cell lysates were collected for western blot assay. Hsp27 phosphorylation on Ser 15, 78, 82 were detected by specific antibodies. β-Actin were detected as internal control. (FIG. 10B) Densitometric analysis of FIG. 9A. (FIG. 10C) HEK 293T cells were pre-treated with peptides S78 or S78A at the concentration of 25 μM for 2 hours and then co-transfected with Hsp27-WT plasmid (800 ng), pIRES reporter plasmid (200 ng) and 2A^pro-expressing plasmid or 2AC110A-expressing plasmid (200 ng) for 24 h, then the luciferase activity was measured. (FIG. 10D-10E) RD cells were treated with peptides S78 or S78A and then infected with EV-A71. EV-A71 VP1 were detected. (FIG. 10F) RD cells were treated with peptides and then infected with EV-A71 at the MOI of 1 for 12 hours. The EV-A71-induced CPE was captured. (FIG. 10G-10H) Intracellular viral RNA was extracted and quantified by qPCR. (FIG. 10I) Densitometric analysis FIG. 9D-E. (FIG. 10J) RD cells were treated with peptides S78 or and then infected with EV-A71 at the MOI of 1 for 12 hours. Extracellular viral RNA was extracted and quantified by qPCR. (FIG. 10K) Viral titration was calculated by TCID50. […] Data are expressed as mean ±SD.
FIGS. 11A-11G Inhibition of EV-A71 Protein Translation and Viral Reproduction by peptide S82A. (FIG. 11A) HEK 293T cells were pre-treated with peptides NC, S78, S78A, S82A, or S78-3A at the concentration of 25 μM for 2 hours and then co-transfected with Hsp27-WT plasmid (800 ng), pIRES reporter plasmid (200 ng) and 2A^pro-expressing plasmid for 24 h, then the luciferase activity was measured. […] Intracellular viral RNA was extracted and quantified by qPCR. […] EV-A71 VP1 were detected. β-Actin was detected as an internal control. (FIG. 11F) Densitometric analysis of the EV-A71 VP1 level in FIG. S7C-E was quantified and normalized with β-Actin using ImageJ. […] Viral titration was calculated. […] Data are expressed as mean ±SD. […]

[4] = test system: 2Apro-induced relocalization of Hsp27 and hnRNP A1 in RD cells; experiment: Immunofluorescence colocalization assay of 2Apro-induced relocalization of Hsp27 and hnRNP A1; type: cell-based; conditions: 25 μM for 2 hours, transfected with 2Apro for 24 hours
Experimental: FIGS. 9A-9B Peptide S78 blocks the 2A^pro-induced relocalization of Hsp27 and hnRNP A1. RD cells on the coverslips were treated with peptides (S78, S78A, and S82A) at the concentration of 25 μM for 2 hours, and then transfected with 2A^pro for 24 hours. The cells were fixed and stained with anti-Hsp27and anti-hnRNPAI, followed by Alexa Fluor 488-conjugated anti-rabbit antibody and Alexa Fluor 594-conjugated anti-mouse antibody. The nuclei were stained with Hoechst. The images were captured by Nikon A1HD25 Confocal Microscope. The JACoP-plugin of the extended ImageJ version Fiji was used to compute the M1 colocalization coefficient, in which (FIG. 9A) is M1 colocalization coefficient for the fraction of Hsp27 in Hoechst and (FIG. 9B) is the M1 colocalization coefficient for the fraction of hnRNP A1 in Hoechst. Statistical analyses were carried out using Student's t-test. *: p<0.05, **: p<0.01, ***: p<0.001. Data are expressed as mean ±SD.
The cells on coverslips were infected with EV-A71 at the multiplicity of infection (MOI) of 40 for 6 hrs to assure the high efficiency of viral infection. Then the cells were fixed by 4% paraformaldehyde for 20 min, permeabilized by 0.5% Triton X-100 for 15 min, blocked with 5% BSA for 2 hrs, and stained by incubation with anti-Hsp27 (GTX101145) and anti-hnRNP A1 (sc-32301) antibody, then with Alexa Fluor 488 conjugated anti-rabbit antibody and Alexa Fluor 594 conjugated anti-mouse antibody respectively. After washing four times with 0.2% Triton X-100, the nuclei were stained with DAPI or Hoechst for 5 min. The images were captured by a Nikon A1HD25 High speed and Large Field of View Confocal Microscope. Colocalization analysis was conducted using the JACoP-plugin of the extended ImageJ version Fiji. The M1 colocalization coefficient was computed to illustrate the colocalization levels of Hsp27 and hnRNP A1 overlapped with Hoechst.

[5] = test system: p38 MAPK; conditions: background statement; cited from earlier work

| Compound | protection from EV-A71-induced CPE [1] | CC50 at 2 days [2] | decrease of viral titer [3] | 2Apro-induced relocalization of Hsp27 and hnRNP A1 [4] | secretion of inflammatory factors (such as IL-6, IL-10, and TNF-α) [5] | viral replication [5] |
| --- | --- | --- | --- | --- | --- | --- |
| Ac-RKKRRQRRRAYSRALSRQLSS-NH2 [S78] | dramatically protected | > 600 µM | 450 folds | almost completely blocked | – | – |
| C[S+]([O-])c1ccc(-c2nc(-c3ccncc3)c(-c3ccc(F)cc3)[nH]2)cc1 (stereo not shown) [SB203580, reference compound] | – | – | – | – | inhibited | reduced |
| Ac-RKKRRQRRRAYSRALARQLSS-NH2 [S78A] | mild protection | > 600 µM | 50 folds | still showed a certain cellular redistribution | – | – |
